The values that follow come from US10292976B2, “Anti-malarial agent” (RIKEN, priority 2014, dated 2019).

Read-outs that look alike come from different tables or passages of the source.

For data set [1], the system named is Plasmodium falciparum: 3D7 strain. The data set is described as follows: Antimalarial activity by LDH assay, 3D7 strain. The format is cell-based. Particulars: for antimalarial activity (LDH assay, FIG. 2): 10 nM to 10 μM. Here is the method:
Compounds that chelate metal ions in various modes (L1 to L25 in FIG. 1) were selected, and their antimalarial activities were evaluated by LDH assay. Since infection with malaria causes an increase in the LDH activity, the evaluation can be made based on the criteria that the lower the detected LDH activity, the higher the antimalarial activity.
(§1) The LDH assay was carried out according to the following procedure. That is, 0.5 μL of a solution of each compound in DMSO was added to 100 μL of a culture liquid of erythrocytes (88% RPMI solution; 2% erythrocytes, provided by the Japanese Red Cross Society; and 10% human serum, provided by the Japanese Red Cross Society) infected with falciparum malaria parasites (Plasmodium falciparum: 3D7 strain) (infection rate of erythrocytes, 0.3%). The resulting culture liquid was subjected to culture in a 96-well plate under an atmosphere of 5% CO2, 5% O2, and 90% N2 at 37° C. for three days. Subsequently, the culture liquid was cooled at −80° C. for three hours, and then returned to room temperature. After addition of 150 μL of an LDH enzyme reaction liquid (0.15 mg/mL diaphorase, 37.5 μL/mL of 50% sodium lactate, 0.17 mg/mL NBT, 0.11 mg/mL APAD, 0.16 mL/mL of 1 M Tris-HCl (pH 8), and 8.3 μL/mL of Tween 20), the absorbance at 620 nm was measured.
By the same procedure as in Experiment 1, erythrocytes infected with malaria were treated with L6 (about 40 nM) together with iron ion (about 50 μM), copper ion (about 1 μM), or zinc ion (about 10 μM), and the antimalarial activity was evaluated by LDH assay.
(§2) According to the same procedure as in Experiment 1, the antimalarial activities of metal complexes (M-L6) synthesized by mixing various kinds of metal ions (MSO4: M=Zn, Fe, Cu, Co, Ni, or Mn) with L6 at a molar ratio of 1:1 were evaluated by LDH assay.

Data set [2] concerns drug-resistant malaria parasite K1 strain. The data set is described as follows: Antimalarial activity by LDH assay, K1 strain. The format is cell-based, Plasmodium falciparum. On the procedure: as §1, §2
According to the same procedure as in Experiment 1, the antimalarial activities of L18 and di-2-pyridylketone 4,4-dimethyl-3-thiosemicarbazone (Sigma) against the malaria parasite 3D7 strain and the drug-resistant malaria parasite K1 strain were evaluated by LDH assay.
According to the same procedure as in Experiment 1, the antimalarial activities of 4′-(4-Pyridyl)-2,2′:6′,2″-terpyridine (Tokyo Chemical Industry) against the malaria parasite 3D7 strain and the drug-resistant malaria parasite K1 strain were evaluated by LDH assay.

For data set [3], the system named is HeLa: human cervical cancer cells. The data set is described as follows: Cytotoxicity by WST-8 assay, HeLa. The format is cell-based. The conditions noted are these: Table 3, 48 hours, WST-8. On the procedure: (§3) After treating various kinds of cells (HEK293T: human embryonic kidney cells; HeLa: human cervical cancer cells; NIH3T3: mouse fibroblast cells; tsNRK: rat kidney cells; and 3Y1: rat fibroblasts) with a metal chelator for 48 hours, the cytotoxicities of the cells were evaluated by WST-8 assay.
(§4) Subsequently, the following cell types: HL60 (human promyelocytic leukemia cells), HeLa (human cervical cancer cells), C3H10T1/2 (murine multipotential mesenchymal cells), and HEK293 (human embryonic kidney 293 cells); were treated with metal complexes M-L6 (M=Zn, Fe, Cu, Co, Ni, and Mn) for 48 hours, and then subjected to WST-8 assay to perform evaluation of the cytotoxicity of each kind of metal complex.

In data set [4] the test system is HL60 (human promyelocytic leukemia cells). Nature of the data set: Cytotoxicity by WST-8 assay, HL60. Format: cell-based. The conditions noted are these: Table 3, 48 hours. On the procedure: as §4
In data set [5] the test system is C3H10T1/2 (murine multipotential mesenchymal cells). The data set is described as follows: Cytotoxicity by WST-8 assay, C3H10T1/2. Format: cell-based. The conditions noted are these: Table 3, 48 hours. On the procedure:
as §4

Data set [6] deals with HEK293 (human embryonic kidney 293 cells). The data set is described as follows: Cytotoxicity by WST-8 assay, HEK293. Format: cell-based. The conditions noted are these: Table 3, 48 hours. On the procedure:
as §4

The test system of another data set is malaria parasites. Particulars: cited from earlier work.
Data set [7] is described as follows: Cytotoxicity by WST-8 assay, HEK293T. Format: cell-based. The conditions noted are these: human, HEK293T cells. Here is the method: as §3
The nature of data set [8]: Cytotoxicity by WST-8 assay, tsNRK. The format is cell-based. Particulars: rat, tsNRK cells. On the procedure:
as §3

The nature of data set [9]: Cytotoxicity by WST-8 assay, 3Y1. Format: cell-based. Particulars: rat, 3Y1 cells, 3Y1, 48 hours. On the procedure: as §3
Data set [10] is described as follows: Cytotoxicity by WST-8 assay, HeLa. Format: cell-based, human. Particulars: human, HeLa cells, HeLa, 48 hours, read-out: IC50 value, cytotoxicity. Here is the method: as §3, §4
Data set [11] is described as follows: Cytotoxicity by WST-8 assay, NIH3T3. Format: cell-based. The conditions noted are these: mouse, NIH3T3 cells, NIH3T3, 48 hours. Here is the method:
as §3

Data set [12] deals with Dd2 strain (drug-resistant malaria parasites). The data set is described as follows: Antimalarial activity by LDH assay, Dd2 strain. The conditions noted are these: Table 2, LDH assay, Experiment 6; read-out: IC50 antimalarial activity, Dd2. Format: cell-based, Plasmodium falciparum.
Data set [13] deals with HL60, HeLa, C3H10T1/2, and HEK293. The data set is described as follows: Cytotoxicity by WST-8 assay, summary for the four cell types of Experiment 6. Format: cell-based. Particulars: C3H10T1/2, HEK293, 48 hours. On the procedure: as §4
Data set [14] deals with mouse malaria parasites (Plasmodium berghei ANKA strain). The data set is described as follows: Life-prolonging effect in malaria-infected mice, oral administration. Particulars: oral 200 mg/kg on Day 1, Day 3, and Day 6. The format is in vivo. Here is the method:
To mice (7 weeks old, Balb/c, male), erythrocytes infected with mouse malaria parasites (Plasmodium berghei ANKA strain) (total number of erythrocytes per mouse, about 10^7; rate of malaria-infected erythrocytes, 0.3%) were intraperitoneally injected. L6 was administered (20 mg/kg, intraperitoneal injection) to each of the thus obtained malaria-infected mice, and the rate of malaria-infected erythrocytes was measured. As a result, on Day 2 to Day 6 after the infection, the infection rate tended to increase in the negative control to which only DMSO was administered. […] The effect of L6 to reduce the infection rate was almost equivalent to the effect of an existing drug, chloroquine (CQ).
To malaria-infected mice obtained by the same procedure as in Experiment 4, an aqueous solution of L6 or the zinc complex Zn-L6 was orally administered (at a dose of 200 mg/kg on Day 1, Day 3, and Day 6; N=6), and changes in the number of surviving individuals were investigated. […] That is, it is thought that, by formation of metal complex with zinc ion, L6 can remarkably suppress the toxicity in vivo while sufficiently maintaining the antimalarial activity.

Where [15] appears, read: Plasmodium falciparum, 3D7, 3D7 strain, values in text, read-out: IC50 value for the antimalarial activity based on the LDH assay.
[16] abbreviates: Plasmodium falciparum, LDH assay, values in text, read-out: IC50 antimalarial activity against the K1 strain.
[17] abbreviates: Table 2, LDH assay, Experiment 6, read-out: IC50 antimalarial activity, 3D7.

For the compound `c1ccc(-c2cc(-c3ccncc3)cc(-c3ccccn3)n2)nc1` [4′-(4-Pyridyl)-2,2′:6′,2″-terpyridine], the half-inhibitory concentration (IC50) in data set [1] (setting [15]) was roughly 160 nM; in data set [2] (setting [16]), roughly 70 nM.

For the compound `O=C(Nc1cccc(CN(Cc2ccccn2)Cc2ccccn2)n1)c1ccccc1` [Bis(2-pyridylmethyl)(6-benzamide-2-pyridylmethyl)amine], the half-maximal inhibitory concentration (IC50) in data set [1] (setting [15]) was roughly 70 nM.

On to `O=S(=O)([O-])[O-].[Co+2].c1ccc(CN(Cc2ccccn2)Cc2ccccn2)nc1` [Co-L6], for which the IC50 in data set [1] (setting [17]) turned out to be 550 nM; in data set [3], 18 µM; in [4] it was 6.6 µM; in data set [5], 18 µM; in data set [6], 20.6 µM.

Regarding `O=S(=O)([O-])[O-].[Cu+2].c1ccc(CN(Cc2ccccn2)Cc2ccccn2)nc1` [Cu-L6], the half-maximal inhibitory concentration (IC50) was 120 nM in data set [1] (setting [17]); 13 µM in [3]; 5 µM in [4]; 12 µM in data set [5]; 6 µM in [6].

Turning to `CC(=O)N(O)CCCCCNC(=O)CCC(=O)N(O)CCCCCNC(=O)CCC(=O)N(O)CCCCCN` [DFO, desferrioxamine], the IC50 in the data set on malaria parasites (Non-patent Document 3, read-out: antimalarial activity IC50) is 21 µM.

In the case of `O=S(=O)([O-])[O-].[Fe+2].c1ccc(CN(Cc2ccccn2)Cc2ccccn2)nc1` [Fe-L6], the concentration for half-maximal inhibition (IC50) in data set [1] (setting [17]) is 190 nM; in data set [3] it was 9.5 µM; in [4] it was 4.8 µM; in [5], 9.6 µM; in data set [6] it was 6.1 µM.

Turning to `Nc1cc2cccnc2c2ncccc12` [L3, (1,10)-Phenanthrolin-5-amine], the half-inhibitory concentration (IC50) at 48 h in data set [7] (1st measurement) was determined as 490 nM; in data set [7] (2nd measurement), 470 nM; in data set [8] (1st measurement) it was 6120 nM; in data set [8] (2nd measurement), 3080 nM; in data set [9] (1st measurement), 730 nM; in data set [9] (2nd measurement), 670 nM.

With `c1ccc(CN(CCN(Cc2ccccn2)Cc2ccccn2)Cc2ccccn2)nc1` [L7, N,N,N′,N′-Tetrakis(2-pyridylmethyl)ethylenediamine, reference compound], the IC50 at 48 h was 1990 nM in [7] (1st measurement); 3140 nM in data set [7] (2nd measurement); 5.53 µM in [10] (1st measurement (Table 1)); 4.96 µM in data set [10] (2nd measurement (Table 1)); 1660 nM in data set [11] (1st measurement); 1790 nM in [11] (2nd measurement). In addition, the IC50 at 48 h is 1840 nM in [8] (1st measurement), 2090 nM in data set [8] (2nd measurement), 5110 nM in data set [9] (1st measurement) and 4930 nM in [9] (2nd measurement). In addition, in the data set on malaria parasites (Non-patent Document 1), the “inhibition of infection with malaria parasites” value is “inhibits infection with malaria parasites”.

On to `c1ccc(-c2ccnc3c2ccc2c(-c4ccccc4)ccnc23)cc1` [L17, 4,7-Diphenyl-1,10-phenanthroline], for which the “antimalarial activity (LDH assay, FIG. 2)” value in [1] (result in words) is reported as “relatively strong antimalarial activity”.

Take `c1ccc(-c2cccc(-c3ccccn3)n2)nc1` [L18, 2,2′:6′,2″-Terpyridine]: in [1] (result in words), the “antimalarial activity (LDH assay, FIG. 2)” value was “relatively strong antimalarial activity”. Besides, the half-maximal inhibitory concentration (IC50) was roughly 280 nM in data set [1] (setting [15]) and roughly 120 nM in [2] (setting [16]).

As for `O=S(=O)([O-])[O-].[Mn+2].c1ccc(CN(Cc2ccccn2)Cc2ccccn2)nc1` [Mn-L6], the half-maximal inhibitory concentration (IC50) amounted to 110 nM in data set [1] (setting [17]); 4.5 µM in data set [3]; 1.5 µM in data set [4]; 4.2 µM in [5]; 3.7 µM in [6].

Take `O=S(=O)([O-])[O-].[Ni+2].c1ccc(CN(Cc2ccccn2)Cc2ccccn2)nc1` [Ni-L6]: the half-inhibitory concentration (IC50) in data set [1] (setting [17]) was 740 nM; in data set [3], 32 µM; in data set [4], 16 µM; in data set [5], 54 µM; in [6], 47.6 µM.

Turning to `O=S(=O)([O-])[O-].[Zn+2].c1ccc(CN(Cc2ccccn2)Cc2ccccn2)nc1` [Zn-L6], the “antimalarial activity of metal complex compared to L6 alone” value in [1] (LDH assay, metal ion:L6 molar ratio 1:1, result in words) is on record as “almost the same as that in the case of L6 alone”. Besides, the 50% inhibitory concentration (IC50) in [1] (setting [17]) was 93 nM; in [2] (Table 2, LDH assay, Experiment 6, read-out: IC50 antimalarial activity, K1), 89 nM; in [12], 166 nM; in data set [3], greater than 100 µM; in [4] it was greater than 100 µM; in data set [5] it was greater than 100 µM. Besides, the IC50 in data set [6] and in data set [13] was greater than 100 µM throughout. Besides, the “cure / infection rate of malaria” value in data set [14] is on record as “completely cured mice, in which the infection rate of malaria was 0%, could be found”. For the same compound, in data set [14], the “life-prolonging effect (number of surviving individuals)” value is reported as “significantly better life-prolonging effect than in the control”.

In the case of `C[C@@H]1CC[C@H]2[C@@H](C)C(=O)O[C@@H]3O[C@@]4(C)CC[C@@H]1[C@]32OO4` [artemisinin, reference compound], the IC50 in data set [1] (setting [15]) was roughly 16 nM.

As for `CCN(CC)CCCC(C)Nc1ccnc2cc(Cl)ccc12` (stereo not drawn) [chloroquine, reference compound], the IC50 in [1] (Plasmodium falciparum, 3D7, read-out: IC50 value for the antimalarial activity based on the LDH assay) is roughly 45 nM.

`CN(C)C(=S)NN=C(c1ccccn1)c1ccccn1` [di-2-pyridylketone 4,4-dimethyl-3-thiosemicarbazone]: the half-maximal inhibitory concentration (IC50) in [1] (setting [15]) was roughly 4 nM; in [2] (setting [16]), roughly 3 nM.

On to `CN(C(=S)NN=C(c1ccccn1)c1ccccn1)C1CCCCC1` [di-2-pyridylketone-4-cyclohexyl-4-methyl-3-thiosemicarbazone], for which the concentration for half-maximal inhibition (IC50) in [1] (setting [15]) is roughly 2 nM.
